Data published in PubChem BioAssay (NCI).
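Cultured in 96-well plates, cells were exposed to test compound for 48 hours across five concentrations. GI50 is the concentration that inhibits growth by half. Definition used: TGI = concentration required for complete inhibition of growth.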

Legend:
Experiment in all cases: NCI-60 cell line screen, 48 h; in the data active = GI50 below about 0.43 µM; inactive = the rest
RPMI-8226 leukemia = system: RPMI-8226 leukemia
SF-268 CNS = system: SF-268 CNS
SK-OV-3 ovarian = system: SK-OV-3 ovarian
ACHN renal = system: ACHN renal
MALME-3M melanoma = system: MALME-3M melanoma
SNB-19 CNS = system: SNB-19 CNS
HOP-18 NSCLC = system: HOP-18 NSCLC
CAKI-1 renal = system: CAKI-1 renal
HL-60(TB) leukemia = system: HL-60(TB) leukemia
UO-31 renal = system: UO-31 renal
CCRF-CEM leukemia = system: CCRF-CEM leukemia
OVCAR-3 ovarian = system: OVCAR-3 ovarian
TK-10 renal = system: TK-10 renal
K-562 leukemia = system: K-562 leukemia
XF 498 CNS = system: XF 498 CNS
HOP-62 NSCLC = system: HOP-62 NSCLC
MOLT-4 leukemia = system: MOLT-4 leukemia
SF-295 CNS = system: SF-295 CNS
SR leukemia = system: SR leukemia
IGROV1 ovarian = system: IGROV1 ovarian
SK-MEL-28 melanoma = system: SK-MEL-28 melanoma
DLD-1 colon = system: DLD-1 colon
DMS 114 small cell lung = system: DMS 114 small cell lung
OVCAR-8 ovarian = system: OVCAR-8 ovarian
HCT-116 colon = system: HCT-116 colon
SK-MEL-5 melanoma = system: SK-MEL-5 melanoma
A498 renal = system: A498 renal
A549 NSCLC = system: A549 NSCLC
SN12C renal = system: SN12C renal
RXF 393 renal = system: RXF 393 renal
NCI-H522 lung = system: NCI-H522 lung
KM12 colon = system: KM12 colon
HCC-2998 colon = system: HCC-2998 colon
M19-MEL melanoma = system: M19-MEL melanoma
LXFL 529 NSCLC = system: LXFL 529 NSCLC
SK-MEL-2 melanoma = system: SK-MEL-2 melanoma
NCI-H226 lung = system: NCI-H226 lung
LOX IMVI melanoma = system: LOX IMVI melanoma
HCT-15 colon = system: HCT-15 colon
NCI-H460 lung = system: NCI-H460 lung
OVCAR-4 ovarian = system: OVCAR-4 ovarian
NCI-H23 lung = system: NCI-H23 lung
UACC-257 melanoma = system: UACC-257 melanoma
U251 CNS = system: U251 CNS
786-0 renal = system: 786-0 renal
M14 melanoma = system: M14 melanoma
SNB-78 CNS = system: SNB-78 CNS
UACC-62 melanoma = system: UACC-62 melanoma
SNB-75 CNS = system: SNB-75 CNS
HT29 colon = system: HT29 colon
SF-539 CNS = system: SF-539 CNS
DMS 273 small cell lung = system: DMS 273 small cell lung
SW-620 colon = system: SW-620 colon
COLO 205 colon = system: COLO 205 colon
HOP-92 NSCLC = system: HOP-92 NSCLC
OVCAR-5 ovarian = system: OVCAR-5 ovarian
KM20L2 colon = system: KM20L2 colon
EKVX NSCLC = system: EKVX NSCLC

COc1ccc2[nH]c3c(C)c4cc[n+](COC(=O)c5ccccc5)cc4c(C)c3c2c1
6.85 µM: TGI (SNB-19 CNS)
1.65 µM: TGI (SF-295 CNS)
24 µM: TGI (HOP-62 NSCLC)
4.4 µM: TGI (TK-10 renal)
4.13 µM: TGI (HL-60(TB) leukemia)
7.06 µM: TGI (MALME-3M melanoma)
0.584 µM: TGI (MOLT-4 leukemia)
1.7 µM: TGI (RPMI-8226 leukemia)
3.81 µM: TGI (SF-268 CNS)
0.213 µM: TGI (SR leukemia)
> 100 µM: TGI (CAKI-1 renal)
1.75 µM: TGI (CCRF-CEM leukemia)
5.27 µM: TGI (OVCAR-3 ovarian)
5.68 µM: TGI (UO-31 renal)
1.46 µM: TGI (K-562 leukemia)
5.67 µM: TGI (XF 498 CNS)
5.97 µM: TGI (ACHN renal)
0.312 µM: TGI (HOP-18 NSCLC)
5.78 µM: TGI (SK-OV-3 ovarian)

CC(=O)[O-].O=[N+]([O-])c1ccc([O-])c(C=NCCN=Cc2cc([N+](=O)[O-])ccc2[O-])c1.[Mn+3]
93.3 µM: TGI (NCI-H522 lung)
19.9 µM: TGI (IGROV1 ovarian)
inactive: GI50 (IGROV1 ovarian) 2.73 µM | GI50 (SK-MEL-28 melanoma) > 100 µM | GI50 (DLD-1 colon) > 100 µM | GI50 (DMS 114 small cell lung) 98 µM | GI50 (OVCAR-8 ovarian) > 100 µM | GI50 (HCT-116 colon) > 100 µM | GI50 (SK-MEL-5 melanoma) > 100 µM | GI50 (A498 renal) > 100 µM | GI50 (SF-268 CNS) > 100 µM | GI50 (A549 NSCLC) > 100 µM | GI50 (SN12C renal) > 100 µM | GI50 (SK-OV-3 ovarian) > 100 µM | GI50 (RXF 393 renal) > 100 µM | GI50 (ACHN renal) > 100 µM | GI50 (MALME-3M melanoma) > 100 µM | GI50 (SNB-19 CNS) > 100 µM | GI50 (HOP-18 NSCLC) > 100 µM | GI50 (NCI-H522 lung) 31.4 µM | GI50 (KM12 colon) > 100 µM | GI50 (HCC-2998 colon) 74.5 µM | GI50 (M19-MEL melanoma) > 100 µM | GI50 (LXFL 529 NSCLC) > 100 µM | GI50 (SK-MEL-2 melanoma) > 100 µM | GI50 (NCI-H226 lung) 89.1 µM | GI50 (LOX IMVI melanoma) 75.8 µM | GI50 (HL-60(TB) leukemia) > 100 µM | GI50 (HCT-15 colon) > 100 µM | GI50 (UO-31 renal) > 100 µM | GI50 (NCI-H460 lung) > 100 µM | GI50 (CCRF-CEM leukemia) 33.4 µM | GI50 (OVCAR-4 ovarian) > 100 µM | GI50 (OVCAR-3 ovarian) 63 µM | GI50 (NCI-H23 lung) > 100 µM | GI50 (UACC-257 melanoma) > 100 µM | GI50 (TK-10 renal) > 100 µM | GI50 (K-562 leukemia) > 100 µM | GI50 (U251 CNS) > 100 µM | GI50 (786-0 renal) > 100 µM | GI50 (MOLT-4 leukemia) > 100 µM | GI50 (M14 melanoma) > 100 µM | GI50 (SNB-78 CNS) > 100 µM | GI50 (UACC-62 melanoma) > 100 µM | GI50 (SF-295 CNS) > 100 µM | GI50 (SNB-75 CNS) > 100 µM | GI50 (HT29 colon) > 100 µM | GI50 (SF-539 CNS) > 100 µM | GI50 (DMS 273 small cell lung) > 100 µM
> 100 µM: TGI (SK-MEL-28 melanoma) | TGI (DLD-1 colon) | TGI (DMS 114 small cell lung) | TGI (OVCAR-8 ovarian) | TGI (HCT-116 colon) | TGI (SK-MEL-5 melanoma) | TGI (A498 renal) | TGI (SF-268 CNS) | TGI (A549 NSCLC) | TGI (SN12C renal) | TGI (SK-OV-3 ovarian) | TGI (RXF 393 renal) | TGI (ACHN renal) | TGI (MALME-3M melanoma) | TGI (SNB-19 CNS) | TGI (HOP-18 NSCLC) | TGI (KM12 colon) | TGI (HCC-2998 colon) | TGI (M19-MEL melanoma) | TGI (LXFL 529 NSCLC) | TGI (SK-MEL-2 melanoma) | TGI (NCI-H226 lung) | TGI (LOX IMVI melanoma) | TGI (HL-60(TB) leukemia) | TGI (HCT-15 colon) | TGI (UO-31 renal) | TGI (NCI-H460 lung) | TGI (CCRF-CEM leukemia) | TGI (OVCAR-4 ovarian) | TGI (OVCAR-3 ovarian) | TGI (NCI-H23 lung) | TGI (UACC-257 melanoma) | TGI (TK-10 renal) | TGI (K-562 leukemia) | TGI (U251 CNS) | TGI (786-0 renal) | TGI (MOLT-4 leukemia) | TGI (M14 melanoma) | TGI (SNB-78 CNS) | TGI (UACC-62 melanoma) | TGI (SF-295 CNS) | TGI (SNB-75 CNS) | TGI (HT29 colon) | TGI (SF-539 CNS) | TGI (DMS 273 small cell lung)

OCCN(CCO)c1ncnc2c1sc(=S)n2-c1ccccc1
> 100 µM: TGI (IGROV1 ovarian) | TGI (SW-620 colon) | TGI (SK-MEL-28 melanoma) | TGI (DLD-1 colon) | TGI (DMS 114 small cell lung) | TGI (OVCAR-8 ovarian) | TGI (RPMI-8226 leukemia) | TGI (HCT-116 colon) | TGI (SK-MEL-5 melanoma) | TGI (A498 renal) | TGI (SF-268 CNS) | TGI (A549 NSCLC) | TGI (SN12C renal) | TGI (SK-OV-3 ovarian) | TGI (RXF 393 renal) | TGI (ACHN renal) | TGI (MALME-3M melanoma) | TGI (SNB-19 CNS) | TGI (HOP-18 NSCLC) | TGI (NCI-H522 lung) | TGI (KM12 colon) | TGI (HCC-2998 colon) | TGI (CAKI-1 renal) | TGI (COLO 205 colon) | TGI (M19-MEL melanoma) | TGI (LXFL 529 NSCLC) | TGI (SK-MEL-2 melanoma) | TGI (NCI-H226 lung) | TGI (LOX IMVI melanoma) | TGI (HL-60(TB) leukemia) | TGI (HOP-92 NSCLC) | TGI (HCT-15 colon) | TGI (UO-31 renal) | TGI (NCI-H460 lung) | TGI (CCRF-CEM leukemia) | TGI (OVCAR-4 ovarian) | TGI (OVCAR-5 ovarian) | TGI (OVCAR-3 ovarian) | TGI (NCI-H23 lung) | TGI (UACC-257 melanoma) | TGI (TK-10 renal) | TGI (K-562 leukemia) | TGI (U251 CNS) | TGI (XF 498 CNS) | TGI (KM20L2 colon) | TGI (786-0 renal) | TGI (HOP-62 NSCLC) | TGI (MOLT-4 leukemia) | TGI (M14 melanoma) | TGI (SNB-78 CNS) | TGI (UACC-62 melanoma) | TGI (EKVX NSCLC) | TGI (SF-295 CNS) | TGI (SNB-75 CNS) | TGI (SR leukemia) | TGI (HT29 colon) | TGI (SF-539 CNS) | TGI (DMS 273 small cell lung)
